Tested on: DU-145 cells
Type: cell-based, human

For `C=C1[C@@H](C)[C@H]2[C@H](Cc3ccccc3)NC(=O)[C@]23[C@H](OC(C)=O)/C=C/[C@@](C)(O)C(=O)[C@@H](C)C/C=C/[C@H]3[C@@H]1O` [Cytochalasin-D], the “Relative Wound Density at 24 Hours, Mean” value was 3.3 ± 0.2, the “Relative Wound Density at 24 Hours, Percent Relative to Media” value was 4% and the “effect on cell migration (in words)” value was “did not migrate”.

Reference: patent US20110110911A1 (priority 2009, published 2011)
